Results taken from patent publication US20260297031A1, “HYDROXYLAMINE-BASED BCR-ABL1 INHIBITORS FOR TREATMENT OF CANCER” (University of Georgia Research Foundation, Inc., priority 2023, published 2026).

Key:
cSRC = cSRC (Homo sapiens, UniProt P12931); assay: KinaseProfiler radiometric kinase assay, cSRC wt; format: biochemical; conditions: [ATP] = 10 μM; mean of n = 2
[1] = Metabolic stability in human hepatocytes
Procedure: Metabolic Stability in Hepatocytes (Independently Performed by Pharmaron Inc., Ninqbo, CN)
After thawing was complete, hepatocytes were transferred into a 50 mL conical tube containing thawing medium and the tube was then placed into a centrifuge and spun at 100 g for 10 min. […] Using AO/PI staining, cells were counted to determine the viable cell density. […] Subsequently, 2 μL of the 100 μM test compounds or control compound solutions was transferred into the respective wells of the 96-well non-coated plate to start the reaction. […] Aliquots of 100 μL of the supernatant were then diluted by 100 μL of ultra-pure water, and the mixture was analyzed by LC-MS/MS.
All calculations were carried out using Microsoft Excel. Peak areas were determined from extracted ion chromatograms. The in-vitro half-life (t1/2) of parent compound was determined by regression of the percent parent disappearance vs. time curve.

Caco-2 cells = assay: Caco-2 permeability; conditions: Papp (b − a/a − b)
Procedure: Caco-2 Permeability (Independently Performed by Pharmaron Inc., Ningbo, CN)
To each well of the Transwell insert and reservoir were added 50 μL and 25 mL of cell culture medium, respectively. […] Following this, the Caco-2 plate was removed from the incubator and the monolayer washed twice with pre-warmed HBSS (10 mM HEPES, pH 7.4).
To determine the rate of drug transport in the apical to basolateral direction, 125 μL of the working solution of either test compounds or control compounds was added to the Transwell insert (apical compartment) and a 50 μL sample was immediately transported from the apical compartment to 200 μL of acetonitrile containing internal standard (100 nM alprazolam, 200 nM Caffeine and 100 nM tolbutamide) in a new 96-well plate as the initial donor sample (A-B). The sample was then vortexed at 1,000 rpm for 10 min. The receiver plate (basolateral compartment) wells were then filled with 235 μL of transport buffer. To determine the rate of drug transport in the basolateral to apical direction, 285 μL of the working solution of either test compounds or control compounds was added to the receiver plate wells (basolateral compartment) and a 50 μL sample was immediately transferred from the basolateral compartment to 200 μL of acetonitrile containing internal standard in a new 96-well plate as the initial donor sample (B-A). The sample was vortexed at 1,000 rpm for 10 min. The Transwell insert (apical compartment) was then filled with 75 μL of transport buffer and the apical to basolateral direction and the basolateral to apical direction were done at the same time. […] After incubation, 50 μL samples from donor sides (apical compartment for Ap→BI flux, and basolateral compartment for BI→Ap) and receiver sides (basolateral compartment for Ap→BI flux, and apical compartment for BI→Ap) were transferred to wells of a new 96-well plate, followed by the addition of 200 μL acetonitrile containing internal standard. All samples were vortexed for 10 min and then centrifuged at 3,220 g for 40 min. A 150 μL aliquot of the supernatant was then mixed with an appropriate volume of ultra-pure water prior to LC-MS/MS analysis.
(§1) To monitor for monolayer integrity, Lucifer yellow leakage was determined after the 2 h transport period. This began by preparing a stock solution of Lucifer yellow in DMSO which was diluted with HBSS (10 mM HEPES, pH 7.4.) to reach a final concentration of 100 μM. To each Transwell insert (apical compartment) was then added 100 μL of the Lucifer yellow solution, followed by filling the wells in the receiver plate (basolateral compartment) with 300 μL of HBSS (10 mM HEPES, pH 7.4).
(§2) The efflux ratio was determined using the following equation: […]

MDCKII-MDR1 cells = assay: MDCKII-MDR1 permeability
Procedure: MDCKII-MDR1 Permeability (Independently Performed By: Pharmaron Inc., Ninqbo, CN)
To each well of the Transwell insert and reservoir were added 50 μL and 25 mL of cell culture medium, respectively.
To determine the rate of drug transport in the apical to basolateral direction, 125 μL of the working solution of either test compounds or control compounds was added to the Transwell insert (apical compartment) and a 50 μL sample was immediately transferred from the apical compartment to 200 μL of acetonitrile containing internal standard (100 nM alprazolam, 200 nM caffeine, and 100 nM tolbutamide) in a new 96-well plate as the initial donor sample (A-B). The sample was then vortexed at 1,000 rpm for 10 min. The receiver plate (basolateral compartment) wells were then filled with 235 μL transport buffer. To determine the rate of drug transport in the basolateral to apical direction, 285 μL of the working solution of either test compounds or control compounds was added to the receiver plate (basolateral compartment) wells and a 50 μL of sample was immediately transferred from the basolateral compartment to 200 μL of acetonitrile containing internal standard in a new 96-well plate as the initial donor sample (B-A). The sample was vortexed for 10 min at 1,000 rpm. The Transwell insert (apical compartment) was then filled with 75 μL of transport buffer and the apical to basolateral direction and the basolateral to apical direction were done at the same time. […] After incubation, 50 μL samples from donor sides (apical compartment for Ap→BI flux, and basolateral compartment BI→Ap) and receiver sides (basolateral compartment for Ap→BI flux, and apical compartment for BI→Ap) were transferred to wells of a new 96-well plate, followed by the addition of 200 μL acetonitrile containing internal standard. […] An aliquot of 100 μL of the supernatant was mixed with an appropriate volume of ultra-pure water before LC-MS/MS analysis.
as §1, with “and” for “which was”
as §2

cSRC, sequence (P12931 whole entry): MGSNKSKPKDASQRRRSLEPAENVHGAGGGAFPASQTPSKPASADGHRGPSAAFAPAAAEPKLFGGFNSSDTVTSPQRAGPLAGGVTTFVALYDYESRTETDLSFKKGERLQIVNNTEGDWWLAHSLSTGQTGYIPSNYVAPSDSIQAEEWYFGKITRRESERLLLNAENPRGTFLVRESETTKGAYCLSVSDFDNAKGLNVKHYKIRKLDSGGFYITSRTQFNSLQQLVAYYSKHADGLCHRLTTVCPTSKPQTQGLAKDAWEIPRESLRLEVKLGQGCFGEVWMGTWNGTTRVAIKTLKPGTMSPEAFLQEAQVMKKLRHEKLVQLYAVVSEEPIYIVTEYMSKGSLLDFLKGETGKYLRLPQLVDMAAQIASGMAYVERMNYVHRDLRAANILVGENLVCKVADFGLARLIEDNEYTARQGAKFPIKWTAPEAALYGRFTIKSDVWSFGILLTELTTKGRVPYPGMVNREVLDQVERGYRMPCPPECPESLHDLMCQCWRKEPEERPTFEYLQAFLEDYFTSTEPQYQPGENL

Row | Structure (SMILES) | IC50 (cSRC) [nM] | remaining at 0.5 min ([1]; hepatocytes) [%] | remaining at 0.5 h ([1]; hepatocytes) [%] | remaining at 1 h ([1]; hepatocytes) [%] | remaining at 2 h ([1]; hepatocytes) [%] | t1/2 ([1]; hepatocytes) [min] | Efflux Ratio (Caco-2 cells) | efflux (P-gp), in words (MDCKII-MDR1 cells; MDCKII-MDR1) | stability in hepatocytes, in words [1] | fold enhancement in permeability (MDCKII-MDR1 cells; MDCKII-MDR1, relative to bosutinib) | permeability in MDCKII-MDR1 cells, in words (MDCKII-MDR1 cells; MDCKII-MDR1)
1 | COc1cc(Nc2c(C#N)cnc3cc(OCCON4CCN(C)CC4)c(OC)cc23)c(F)cc1Cl [Compound 15, 4-((4-chloro-2-fluoro-5-methoxyphenyl)amino)-6-methoxy-7-(2-((4-methylpiperazin-1-yl)oxy)ethoxy)quinoline-3-carbonitrile] | 2 | 100 | 52.5 | 29.4 | 9.48 | 34.2 | 6.4 | no further improvement in drug efflux was seen | – | – | –
2 | COc1cc2c(Nc3cccc(OC)c3Cl)c(C#N)cnc2cc1OCCON1CCN(C)CC1 [Compound 17, 4-((2-Chloro-3-methoxyphenyl)amino)-6-methoxy-7-(2-((4-methylpiperazin-1-yl)oxy)ethoxy)quinoline-3-carbonitrile] | 14 | 100 | 80.6 | 60.5 | 35.8 | – | 3.58 | greatly reduced efflux ratio | good stability in human hepatocytes | 31 -fold | –
3 | COc1cc(Cl)ccc1Nc1c(C#N)cnc2cc(OCCON3CCN(C)CC3)c(OC)cc12 [Compound 20, 4-((4-Chloro-2-methoxyphenyl)amino)-6-methoxy-7-(2-((4-methylpiperazin-1-yl)oxy)ethoxy)quinoline-3-carbonitrile] | 11 | 100 | 63.5 | 43.3 | 20.1 | – | 6.24 | reduced efflux ratios | good stability in human hepatocytes | – | markedly improved permeability
